Results as given in patent US5322846A, “4-methylthiazole derivatives, their methods of preparation and the pharmaceutical compositions in which they are present” (Institut de Recherches Chimiques et Biologiques Appliquees …, priority 1990, dated 1994).
Counter-ions that a name gives are not always drawn. Like-named read-outs stand apart in the source and are kept apart here.

How the values were obtained:
[1] = molecular target: T1, postsynaptic alpha-adrenergic receptors (Rattus norvegicus, UniProt P43140); assay: Alpha-blocking activity towards norepinephrine on isolated rat vas deferens; format: biochemical; details: -log of concentration requiring doubled norepinephrine, read-out: pA2 (converted)
T1 construct: causes contraction of the isolated vas deferens; from tissue; host or cells: isolated rat vas deferens
T1 sequence (P43140 1-466): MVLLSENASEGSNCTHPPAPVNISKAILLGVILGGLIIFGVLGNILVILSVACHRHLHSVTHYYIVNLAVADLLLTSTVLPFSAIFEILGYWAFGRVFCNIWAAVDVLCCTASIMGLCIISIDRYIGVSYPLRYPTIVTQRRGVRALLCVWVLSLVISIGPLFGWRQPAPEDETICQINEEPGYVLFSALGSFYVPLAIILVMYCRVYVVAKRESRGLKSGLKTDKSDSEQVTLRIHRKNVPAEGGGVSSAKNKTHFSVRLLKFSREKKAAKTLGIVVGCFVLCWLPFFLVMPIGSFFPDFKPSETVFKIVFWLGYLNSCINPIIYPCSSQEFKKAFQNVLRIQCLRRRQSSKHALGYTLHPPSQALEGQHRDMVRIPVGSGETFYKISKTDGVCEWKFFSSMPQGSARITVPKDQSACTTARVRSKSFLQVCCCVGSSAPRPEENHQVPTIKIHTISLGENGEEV
Description: Stimulation of the postsynaptic alpha-adrenergic receptors by norepinephrine causes contraction of the isolated vas deferens.
The concentration of product in whose presence the norepinephrine concentration must be doubled in order to obtain the same effect as in the absence of said product is determined. The logarithm of this concentration, with the opposite sign, constitutes the pA2 of the products.
Their alpha-blocking activity is high since it appears for low concentrations of between 10^-6 M and 10^-8 M.

[2] = Acute toxicity in mice (oral, LD50); details: mouse, in vivo, male mice, single dose, 14-day observation
Description: The products were administered orally in a single dose to male mice with an average weight of 22 g. The mortality was recorded after a 14-day observation period.
The results are expressed in the form of the 50% lethal dose (LD50), i.e. the theoretical dose in mg.kg^-1, administered orally, which causes the death of 50% of the animals.
The majority of the molecules have an LD50 of more than 1 g.kg^-1. These are therefore products with a low toxicity after a single administration.

[3] = test system: lethal effect of norepinephrine; assay: Adrenolytic activity in vivo on the lethal effect of norepinephrine in rats; details: for ED50: Rattus norvegicus, wake male rats, norepinephrine 0.4 mg.kg^-1 intravenous, prior administration of product, read-out: ED50 (dose which protects 50% of the animals); for adrenolytic activity in the whole animals: rats, in words
Description: The intravenous injection of norepinephrine (0.4 mg.kg^-1) into wake male rats causes the death of 100% of the animals. The prior administration of a substance which has an alpha-blocking property makes it possible to reduce this toxicity.
The results are expressed in the form of the 50% effective dose (ED50), i.e. the dose in mg.kg^-1 which protects 50% of the animals (Table 5).

[4] = test system: femoral blood pressure and heart rate; assay: Cardiovascular activity (blood pressure and heart rate) in anesthetized rats; format: in vivo; details: for Heart rate, maximum effect in % / ED25: I.V., pentobarbital-anesthetized rats; for ED25: Rattus norvegicus, iv, 25% drop in average blood pressure
Description: The cardiovascular effects of three products were studied in rats anesthetized with pentobarbital and placed under artificial respiration. The femoral blood pressure and the heart rate are recorded by means of a GOULD-BRUSH apparatus.
The products are administered intravenously in increasing doses. Three animals are tested per product. The dose which causes a 25% drop in average blood pressure (ED25) was evaluated for each product and compared with nicardipine 1 to 5 min after administration.
The products have dose-dependent hypotensive effects but have little or no effect on the heart rate (Table 7). The most hypotensive in terms of the effective dose is B 1395 (ED25 of 0.004 mg.kg^-1).

[5] = test system: hypertension induced by norepinephrine; assay: Inhibitory activity towards hypertension induced by norepinephrine in anesthetized rabbits; format: in vivo; details: anesthetized male rabbits, intravenous; for ED50: Oryctolagus cuniculus, read-out: ID50 (50% inhibition of norepinephrine-induced hypertension)
Description: The blood pressure is measured by catheterization of the left carotid artery of anesthetized male rabbits. An increase in blood pressure is induced by an intravenous injection of norepinephrine. This hypertension can be inhibited by the prior administration of molecules with an alpha-blocking potential.
These are presented in Table 6 in the form of the 50% inhibitory dose (ID50), which is defined as the dose of product which, when administered intravenously, causes a 50% inhibition of the hypertension induced by norepinephrine.

[6] = 1 min, 1 minute, read-out: Blood pressure: Hypotension, ED25 at 1 minute
[7] = 5 min, 5 minutes, read-out: Blood pressure: Hypotension, ED25 at 5 minutes

Structure (SMILES)	Kb [1]	LD50 at 336 h [2]	ED50 [3]	adrenolytic activity in the whole animals [3]	hypotensive potential compared with nicardipine ([4]; ED25 values 5 min after I.V. injection, in words)	Heart rate, maximum effect in % [4]	ED25 [4, 6]	ED25 [4, 7]	ED50 [5]	active dose [5]	effectiveness against norepinephrine-induced hypertension ([5]; in words)
CCCOc1ccccc1N1CCN(CC(O)COc2scnc2C)CC1 (stereo not drawn) [B 1395, 3-(4-o-propoxyphenylpiperazin-1-yl)-1-(4-methylthiazolyl-5-oxy)propan-2-olmonohydrochloride]	20 nM	515 mg/kg	0.2 mg/kg	very active	on a level with that of nicardipine	-4%	0.004 mg/kg	0.1 mg/kg	0.2 mg/kg	less than 1 mg.kg^-1	particularly effective
CCOc1ccccc1N1CCN(CCOc2scnc2C)CC1 [B 1258, 4-methyl-5-[2-(4-o-ethoxyphenylpiperazin-1-yl)ethoxy]thiazole]	15.8 nM	> 1000 mg/kg	6.5 mg/kg	very active	–	-5.6%	0.8 mg/kg	1 mg/kg	5.6 mg/kg	–	–
CCOc1ccccc1N1CCN(CC(O)COc2scnc2C)CC1 (stereo not drawn) [B 1392, 3-(4-o-ethoxyphenylpiperazin-1-yl)-1-(4-methylthiazolyl-5-oxy)propan-2-ol]	13.2 nM	260 mg/kg	0.3 mg/kg	very active	–	-11.2%	0.024 mg/kg	0.048 mg/kg	2.6 mg/kg	–	–
